Test results taken from patent publication US20260200942A1, “PARP7 INHIBITORS AND THEIR APPLICATIONS” (CHONGQING PHARSCIN INNOBIO CO., LTD., priority 2023, published 2026).

Tests used:
PARP7 = target: T1, PARP7 (Homo sapiens, UniProt Q7Z3E1); test: PARP7 inhibitory activity assay (histone-coated 384-well plate, chemiluminescence); format: biochemical
T1 construct: purchased BPS 80527
T1 sequence (Q7Z3E1 1-657): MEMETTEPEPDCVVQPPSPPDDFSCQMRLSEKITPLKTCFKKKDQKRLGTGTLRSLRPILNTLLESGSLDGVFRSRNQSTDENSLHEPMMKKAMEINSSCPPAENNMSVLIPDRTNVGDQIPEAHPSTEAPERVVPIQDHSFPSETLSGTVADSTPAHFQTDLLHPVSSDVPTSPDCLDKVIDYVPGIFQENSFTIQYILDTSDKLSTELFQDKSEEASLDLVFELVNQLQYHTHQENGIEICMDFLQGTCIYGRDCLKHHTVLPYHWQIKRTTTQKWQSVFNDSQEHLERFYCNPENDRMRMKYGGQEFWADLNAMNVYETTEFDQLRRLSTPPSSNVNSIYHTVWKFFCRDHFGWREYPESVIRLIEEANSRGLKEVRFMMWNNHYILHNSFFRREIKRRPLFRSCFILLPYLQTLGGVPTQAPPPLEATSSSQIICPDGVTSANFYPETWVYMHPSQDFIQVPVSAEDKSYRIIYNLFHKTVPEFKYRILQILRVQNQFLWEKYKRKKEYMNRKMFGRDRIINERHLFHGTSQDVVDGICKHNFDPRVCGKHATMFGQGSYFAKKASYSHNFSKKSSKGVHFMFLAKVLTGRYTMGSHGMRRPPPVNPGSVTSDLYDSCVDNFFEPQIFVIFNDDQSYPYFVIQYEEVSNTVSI
Source text: Inhibition rate (%) calculation formula: […]

[1] = Liver microsomal stability study, human; format: in vitro ADME; settings: Human liver microsomes
Description: (§1) The above compounds were diluted to a 1.5 μM intermediate working solution with 0.1 M potassium phosphate buffer containing 0.75 mg/mL liver microsomes, and then 30 μL of the intermediate working solution was dispensed into reaction plates for different time points (0, 5, 15, 30, 45, 60 min). 150 μL of methanol solution containing internal standard was added to the 0 min plate wells. For the other time points (5, 15, 30, 45, 60 min), the sample plates were pre-incubated at 37° C. for 5 min, after which the reaction was initiated with 15 μL of 6 mM NADPH solution and timing was started. 15 μL of 6 mM NADPH solution was added to the 0 min samples to balance the system. At 5 min, 15 min, 30 min, 45 min, and 60 min, respectively, 150 μL of methanol solution containing internal standard was added to the reaction wells to terminate the reaction. After the reaction was complete, the plates were shaken on a shaker at 600 rpm for 10 min, then centrifuged at 4000 rpm for 15 min. 80 μL of supernatant from each well was transferred to a 96-well sample plate containing 150 μL of ultrapure water, mixed, and then analyzed by LC/MS to calculate T1/2.

[2] = Liver microsomal stability study, mouse; format: in vitro ADME; settings: Mouse liver microsomes
Description: as §1

[3] = Liver microsomal stability study, rat; format: in vitro ADME; settings: Rat liver microsomes
Description: as §1

[4] = Mouse pharmacokinetic study; format: in vivo; settings: BALB/c mice; for AUC(0-t) / Cmax / Tmax / half-life: female, mouse, plasma
Source text: • (1) Study design: Female healthy Balb/c mice (specific pathogen-free (SPF) grade) were used as test animals, divided into 2 dose groups with 3 mice in each group, for single intravenous injection and single oral gavage administration, respectively. The vehicle formulations were […] (DMSO)+10% Solutol+85% Saline and 0.5% methylcellulose (MC), respectively. • (2) Plasma sample collection and processing: Blood was collected from the orbital venous plexus of the mice. After intravenous (IV) bolus administration, samples were collected at 0.083 h, 0.25 h, 0.5 h, 1 h, 2 h, 4 h, 8 h, and 24 h. After oral (PO) administration, samples were collected at 0.25 h, 0.5 h, 1 h, 2 h, 4 h, 6 h, 8 h, and 24 h. An appropriate volume of whole blood samples was collected with EDTA-K2 anticoagulation, placed on wet ice after collection, and plasma was separated by centrifugation within 30 min (centrifugation conditions: 4000 rpm, 10 minutes, 2-8° C.). The collected plasma samples were stored in a −70° C. freezer before analysis. After analysis, the remaining plasma samples continued to be stored in a −70° C. freezer. • (3) Analytical batch processing and pharmacokinetic parameter calculation: The concentration of the test substance in the plasma samples was determined. The accuracy of quality control samples was evaluated concurrently with the analysis of the samples, with the requirement that more than 66.7% of the quality control samples have an accuracy between 80-120%. Using the plasma concentration data at different time points, pharmacokinetic parameters such as C0 (IV), Area Under the Curve (AUC)(0-t), T1/2, Cmax, Tmax, and Mean Residence Time (MRT) were calculated using WinNonlin.

PARP2 = target: T2, PARP2 (Homo sapiens, UniProt Q9UGN5); test: PARP2 inhibitory activity assay (BPS PARP2 Chemiluminescent Activity Assay Kit); format: biochemical
T2 construct: purchased BPS Bioscience
T2 sequence (Q9UGN5 whole entry): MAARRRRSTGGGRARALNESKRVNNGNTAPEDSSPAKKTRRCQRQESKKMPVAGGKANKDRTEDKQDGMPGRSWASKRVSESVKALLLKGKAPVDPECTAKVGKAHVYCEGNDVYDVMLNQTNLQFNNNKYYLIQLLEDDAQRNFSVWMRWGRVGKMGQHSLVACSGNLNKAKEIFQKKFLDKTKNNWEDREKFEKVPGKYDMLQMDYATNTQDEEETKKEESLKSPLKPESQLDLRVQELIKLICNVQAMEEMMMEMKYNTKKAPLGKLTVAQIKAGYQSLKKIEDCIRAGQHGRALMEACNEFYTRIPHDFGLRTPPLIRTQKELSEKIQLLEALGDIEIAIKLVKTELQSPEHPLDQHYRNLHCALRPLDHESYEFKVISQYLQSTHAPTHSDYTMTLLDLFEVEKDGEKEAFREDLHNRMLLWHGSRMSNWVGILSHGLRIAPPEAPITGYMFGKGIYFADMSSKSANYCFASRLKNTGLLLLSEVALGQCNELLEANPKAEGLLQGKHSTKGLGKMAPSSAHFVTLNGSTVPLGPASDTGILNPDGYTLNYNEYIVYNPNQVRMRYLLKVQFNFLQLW
Source text: The PARP2 enzyme activity assay method used in the present disclosure employs reagents from the PARP2 Chemiluminescent Activity Assay Kit from BPS Bioscience, USA. […] The test results are shown in Table 1. /” indicates not tested.

Row | SMILES | IC50 (PARP7) [nM] | IC50 (PARP2) [nM] | further results
1 | O=c1[nH]nc(CN[C@H]2C[C@H](C(=O)N3C4CCC3CN(c3ncc(C(F)(F)F)cn3)C4)C2)cc1C(F)(F)F [Embodiment 3] | 10 to 100 | – | half-life at 1 µM [1]: > 1 h; half-life at 1 µM [2]: > 1 h; half-life at 1 µM [3]: > 1 h
2 | O=c1[nH]cc(CN[C@H]2C[C@H](C(=O)N3C4CCC3CN(c3ncc(C(F)(F)F)cn3)C4)C2)cc1C(F)(F)F [Embodiment 4] | 10 to 100 | – | half-life at 1 µM [1]: 0.5 to 1 h; half-life at 1 µM [2]: > 1 h; half-life at 1 µM [3]: > 1 h
3 | O=c1[nH]nc(CN[C@H]2C[C@H](C(=O)N3CCN(c4ncc(C(F)(F)F)cc4C4CC4)CC3)C2)cc1C(F)(F)F [Embodiment 56] | 10 to 100 | – | –
4 | CCOc1cc(C(F)(F)F)cnc1N1CCN(C(=O)[C@H]2C[C@H](NC(C)(C)c3cc(C(F)(F)F)c(=O)[nH]n3)C2)CC1 [Embodiment 58] | 10 to 100 | – | –
5 | COc1cc(C(F)(F)F)cnc1N1CCN(C(=O)[C@H]2C[C@H](NC(C)(C)c3cc(C(F)(F)F)c(=O)[nH]n3)C2)CC1 [Embodiment 59] | 10 to 100 | – | –
6 | CC(C)(N[C@H]1C[C@H](C(=O)N2CCN(c3ncc(C(F)(F)F)cc3C(N)=O)CC2)C1)c1cc(C(F)(F)F)c(=O)[nH]n1 [Embodiment 60, 2-(4-((1R,3R)-3-((2-(6-oxo-5-(trifluoromethyl)-1,6-dihydropyridazin-3-yl)propan-2-yl)amino)cyclobutane-1-carbonyl)piperazin-1-yl)-5-(trifluoromethyl)nicotinamide] | < 10 | 100 to 1000 | –
7 | CC(C)(N[C@H]1C[C@H](C(=O)N2CCN(c3ncc(C(F)(F)F)c4cc[nH]c34)CC2)C1)c1cc(C(F)(F)F)c(=O)[nH]n1 [Embodiment 64, 4-(trifluoromethyl)-6-(2-(((1R,3R)-3-(4-(4-(trifluoromethyl)-1H-pyrrolo[2,3-c]pyridin-7-yl)piperazine-1-carbonyl)cyclobutyl)amino)propan-2-yl)pyridazin-3(2H)-one] | < 10 | 100 to 1000 | –
8 | Cn1ccc2c(C(F)(F)F)cnc(N3CCN(C(=O)[C@H]4C[C@H](NC(C)(C)c5cc(C(F)(F)F)c(=O)[nH]n5)C4)CC3)c21 [Embodiment 65, 6-(2-(((1R,3R)-3-(4-(1-methyl-4-(trifluoromethyl)-1H-pyrrolo[2,3-c]pyridin-7-yl)piperazine-1-carbonyl)cyclobutyl)amino)propan-2-yl)-4-(trifluoromethyl)pyridazin-3(2H)-one] | – | 100 to 1000 | –
9 | CC(C)(N[C@H]1C[C@H](C(=O)N2CCN(c3ncc(C(F)(F)F)cc3C(=O)N3CCCC3)CC2)C1)c1cc(C(F)(F)F)c(=O)[nH]n1 [Embodiment 66] | 10 to 100 | – | –
10 | CNC(=O)c1cc(C(F)(F)F)cnc1N1CCN(C(=O)[C@H]2C[C@H](NC(C)(C)c3cc(C(F)(F)F)c(=O)[nH]n3)C2)CC1 [Embodiment 67, N-methyl-2-(4-((1R,3R)-3-((2-(6-oxo-5-(trifluoromethyl)-1,6-dihydropyridazin-3-yl)propan-2-yl)amino)cyclobutane-1-carbonyl)piperazin-1-yl)-5-(trifluoromethyl)nicotinamide] | < 10 | 100 to 1000 | –
11 | Cc1cc2c(C(F)(F)F)cnc(N3CCN(C(=O)[C@H]4C[C@H](NC(C)(C)c5cc(C(F)(F)F)c(=O)[nH]n5)C4)CC3)c2[nH]1 [Embodiment 68, 6-(2-(((1R,3R)-3-(4-(2-methyl-4-(trifluoromethyl)-1H-pyrrolo[2,3-c]pyridin-7-yl)piperazine-1-carbonyl)cyclobutyl)amino)propan-2-yl)-4-(trifluoromethyl)pyridazin-3(2H)-one] | < 10 | – | –

Further lines, with some results ahead:

Row | IC50 (PARP7) [nM] | IC50 (PARP2) [nM] | SMILES | further results
12 | 10 to 100 | – | O=C(C1CN(Cc2cc(C(F)(F)F)c(=O)[nH]n2)C1)N1CCN(c2ncc(C(F)(F)F)cn2)CC1 [Embodiment 5, 4-(trifluoromethyl)-6-((3-(4-(5-(trifluoromethyl)pyrimidin-2-yl)piperazine-1-carbonyl)azetidin-1-yl)methyl)pyridazin-3(2H)-one] | half-life at 1 µM [1]: > 1 h; F ([4]; PO, 10 mg/kg, 0.5% MC): 66.00%; AUC(0-t) ([4]; IV, 1 mg/kg): 7900 ng·h/mL; Cmax ([4]; IV, 1 mg/kg): 4210 ng/mL; Tmax ([4]; IV, 1 mg/kg): 0.08 h; half-life ([4]; IV, 1 mg/kg): 1.28 h; AUC(0-t) ([4]; PO, 10 mg/kg, 0.5% MC): 52100 ng·h/mL; Cmax ([4]; PO, 10 mg/kg, 0.5% MC): 22000 ng/mL; Tmax ([4]; PO, 10 mg/kg, 0.5% MC): 0.33 h; half-life ([4]; PO, 10 mg/kg, 0.5% MC): 0.98 h; half-life at 1 µM [2]: > 1 h; half-life at 1 µM [3]: > 1 h
13 | 10 to 100 | – | O=c1[nH]cc(CN[C@H]2C[C@H](C(=O)N3CCN(c4ncc(C(F)(F)F)cn4)CC3)C2)cc1C(F)(F)F [Embodiment 13] | half-life at 1 µM [1]: 0.5 to 1 h; half-life at 1 µM [2]: > 1 h; half-life at 1 µM [3]: > 1 h
14 | 10 to 100 | – | O=C(C1CN(Cc2c[nH]c(=O)c(C(F)(F)F)c2)C1)N1CCN(c2ncc(C(F)(F)F)cn2)CC1 [Embodiment 14] | half-life at 1 µM [1]: > 1 h; half-life at 1 µM [2]: > 1 h; half-life at 1 µM [3]: > 1 h
15 | < 10 | 10 to 100 | COc1cc(C(F)(F)F)cnc1N1CCN(C(=O)C2CN(Cc3cc(C(F)(F)F)c(=O)[nH]n3)C2)CC1 [Embodiment 46, 6-((3-(4-(3-methoxy-5-(trifluoromethyl)pyridin-2-yl)piperazine-1-carbonyl)azetidin-1-yl)methyl)-4-(trifluoromethyl)pyridazin-3(2H)-one] | –
16 | < 10 | 10 to 100 | CC(C)(N[C@H]1C[C@H](C(=O)N2CCN(c3ncc(C(F)(F)F)cn3)CC2)C1)c1cc(C(F)(F)F)c(=O)[nH]n1 [Embodiment 48] | –
17 | 10 to 100 | – | Cc1cc(C(F)(F)F)cnc1N1CCN(C(=O)[C@H]2C[C@H](NCc3cc(C(F)(F)F)c(=O)[nH]n3)C2)CC1 [Embodiment 53] | –
18 | 100 to 1000 | – | O=C(C1CN(Cc2n[nH]c(=O)cc2C(F)(F)F)C1)N1CCN(c2ncc(C(F)(F)F)cn2)CC1 [Embodiment 54, 5-(trifluoromethyl)-6-((3-(4-(5-(trifluoromethyl)pyrimidin-2-yl)piperazine-1-carbonyl)azetidin-1-yl)methyl)pyridazin-3(2H)-one] | –
19 | 1000 to 10000 | – | O=c1cc(C(F)(F)F)c(CN[C@H]2C[C@H](C(=O)N3CCN(c4ncc(C(F)(F)F)cn4)CC3)C2)n[nH]1 [Embodiment 55] | –
20 | < 10 | – | COc1cc(N2CCN(C(=O)C3CN(Cc4cc(C(F)(F)F)c(=O)[nH]n4)C3)CC2)ncc1C(F)(F)F [Embodiment 57, 6-((3-(4-(4-methoxy-5-(trifluoromethyl)pyridin-2-yl)piperazine-1-carbonyl)azetidin-1-yl)methyl)-4-(trifluoromethyl)pyridazin-3(2H)-one] | –
21 | < 10 | 10 to 100 | NC(=O)c1cc(C(F)(F)F)cnc1N1CCN(C(=O)[C@H]2C[C@H](NCc3cc(C(F)(F)F)c(=O)[nH]n3)C2)CC1 [Embodiment 62, 2-(4-((1R,3R)-3-(((6-oxo-5-(trifluoromethyl)-1,6-dihydropyridazin-3-yl)methyl)amino)cyclobutane-1-carbonyl)piperazin-1-yl)-5-(trifluoromethyl)nicotinamide] | –
